Source: patent US20100183699A1, “COMPOSITIONS AND METHODS TO CROSS LINK POLYMER FIBERS” (priority 2009, published 2010)
“Also recorded” adds a separate entry of the source. Read-outs that look alike come from different tables or passages of the source.

Legend:
[1] = literature reports on alternative crosslinkers, cited from earlier work
cells = conditions: cited from earlier work; for cytotoxicity: crosslinking agent
[2] = SEM fiber morphology after exposure to aqueous environment (water, DMEM); type: physicochemical; conditions: genipin 0.03-0.1 M in absolute ethanol or isopropanol, crosslinking for 5 days
Protocol: All samples were imaged using a Scanning Electron Microscope (Leo 1530) and diameters of 100 randomly selected fibers were measured, per sample, using image processing software (ImageJ). One-way ANOVA using the Tukey test was used to compare the difference between the diameters of crosslinked samples (Dcrosslink) and after exposure to growth media for 1 and 3 days (Dfinal). If a significant difference existed, the percent swelling was then calculated using the equation: […]
The experimental parameters investigated were: solvent (isopropanol, ethanol), water content (0%, 1%, 3% and 5%) and reaction time (1, 3 and 5 days). All electrospun collagen fiber samples were exposed to air and the reaction temperature was maintained at 37° C. in an incubator. The genipin concentration was fixed at 11.3 mg of genipin per mg of collagen, which was sufficient for the crosslinking reaction to reach completion (Yao, C. H., et al., Materials Chemistry and Physics 2004, 83, (2-3), 204-208). After crosslinking, the collagen samples were washed in ethanol or isopropanol (depending on the solvent used) for further characterization.

| Compound | swelling / morphology of crosslinked collagen fibers in water [1] | swelling / morphology of crosslinked collagen fibers in water ([1]; listed as GA) | cytotoxicity (cells) | morphology and overall architecture of collagen nanofibers after exposure to water [2] | cell proliferation (cells; compared to glutaraldehyde) |
| --- | --- | --- | --- | --- | --- |
| O=CCCCC=O [glutaraldehyde, Glutaraldehyde] | not very effective in controlling its swelling properties | failed to maintain collagen fiber morphology; also recorded: swell significantly in water | highly cytotoxic |  |  |
| CCN=C=NCCCN(C)C [EDC, 1-ethyl-3-(3-dimethylaminopropyl) carbodiimide] | significant degree of swelling |  |  |  |  |
| O=C1CCC(=O)N1O [NHS, N-hydroxysuccinimide] | significant degree of swelling |  |  |  |  |
| COC(=O)C1=CO[C@@H](O)[C@@H]2C(CO)=CC[C@H]12 [genipin] |  |  | low cytotoxicity | failed to maintain the morphology | more stimulative to cell proliferation |
